Test results as given in patent publication US4946849A, “Method for the treatment of malaria” (Flow Incorporated, priority 1989, dated 1990).
Where a name gives a salt, the structure may show the parent alone.

Experiments:
[1] = s.c., mice; cited from earlier work
[2] = tested on: P. falciparum ATCC 50005 (chloroquine resistant); test: Growth inhibition of chloroquine-resistant P. falciparum in culture (96-well plates, microscopy and flow cytometry); format: cell-based; conditions: chloroquine-resistant strain
Experimental: Numerous experiments were conducted regarding dequalinium compounds and their ability to control the growth of chloroquine-resistant and sensitive strains of P. falciparum malaria parasites. Specifically, two commonly-known strains of P. falciparum were obtained from the American Type Culture Collection (ATCC), namely, ATCC 50005 (chloroquine resistant) and ATCC 50028 (chloroquine sensitive). The methods of culture and culture materials used in the experiments described herein are known in the art and discussed in Trager W. and Jensen, J., "Human Malaria Parasites in Continuous Culture" Science, […] (1976).
Assays for growth inhibition of P. falciparium were performed using the above parasites in standard 96-well test plates. All assays were performed in duplicate. The tests involved the use of a dequalinium chloride salt solution (from the Sigma Company of St. Louis, Mo.--product no. D3768) at concentration levels of 32, 16, 8, 4, 2, 1, and 0 nanograms/ml.
The parasites were permitted to incubate in the test media for 72 hours. At 24 hour intervals, new media and test substances were added, and an aliquot of the incubation mixture was removed for microscopic examination,In addition, the parasites were examined by flow cytometry using the techniques discussed in Makler, M. T., et al., "Thiazone Orange: A New Dye for Plasmodium Species Analysis" Cytometry, 8:568-570 (1987).
The entire experiment was terminated after three days. The data in FIG. 1 clearly illustrates the effectiveness of dequalinium salts against chloroquine-resistant parasites. The "Y" axis in FIG. 1 involves the percentage of erythrocytes in the test media which were infected with viable parasites. The "X" axis involves the concentration of dequalinium chloride used (in nanograms/ml.) At 0 nanograms/ml, parasite growth was extensive, with a % parasite infection of about 17 % after 72 hours.

Rat Colon Tumor = conditions: rats, subcutaneous, intraperitoneal, or implant-osmotic pump, cited from earlier work

Cc1cc(N)c2ccccc2[n+]1CCCCCCCCCC[n+]1c(C)cc(N)c2ccccc21 [dequalinium chloride, 1,1'-(1,10-Decanediyl)bis-[4-amino-2-methylquinolinium] salt]
LD50 [1]: 70 mg/kg
minimal effective concentration ([2]; Plasmodium falciparum, ATCC50005, read-out: concentration level at and above which parasite growth was strongly inhibited and no viable parasites remained, after 72 hours): ≥ 0.001 µg/mL
parasite growth ([2]; 1.0 nanogram/ml and above): strongly inhibited
viable parasites remaining ([2]; 1.0 nanogram/ml and above, after 72 hours): no viable parasites remained
tumor growth inhibition (Rat Colon Tumor; 1.0 mg/kg): significant tumor growth inhibition
survival (Rat Colon Tumor; sublethal dose 1.0 mg/kg): all survived
